The target of one assay is T1, IRE1 (Saccharomyces cerevisiae, UniProt P32361).
T1 construct: endogenous in cells
In words: IRE1 inhibitors screening (inhibition of transcriptional activator HAC1 in yeast). To be noted: for IC50: read-out: IRE1 IC50. The format is cell-based. The text has this: A series of natural products were screened for their capacity to inhibit the UPR pathway via the inhibition of IRE1 in an in vitro screening test, based inhibition of the transcriptional activator HAC1 in Saccharomyces cerevisiae (the IRE1 protein is the ‘sole effector of the UPR pathway in fungi).

Another assay has as its system Alternaria brassicicola. Nature of the assay: In vitro nephelometric fungal growth test. To be noted: for Cmax (concentration inducing at most 20% inhibition of fungal growth) / CTP (retained non-fungicidal concentration applied in planta): A. brassicicola; for CTP (retained non-fungicidal concentration applied in planta): inferior to MIG50 and inferior or equal to Cmax; for IC50: Alternaria brassicicola, 33 h, read-out: MIG50 (concentration inducing 50% inhibition of fungal growth).

The next assay has as its system Botrytis cinerea. In words: In vitro nephelometric fungal growth test. The settings on record: for CTP (retained non-fungicidal concentration applied in planta): inferior to MIG50 and inferior or equal to Cmax; for IC50: Botrytis cinerea, 33 h, read-out: MIG50 (concentration inducing 50% inhibition of fungal growth).
[1] abbreviates: in vitro screening, IRE1 activity of less than 80% = retained as IRE1 inhibitor.

The values below come from US20240389587A1, “COMPOSITIONS AND METHODS FOR CONTROLLING PHYTOPATHOGENIC INFECTIONS” (INSTITUT NATIONAL DE RECHERCHE POUR L'AGRICULTURE, …, priority 2021, published 2024).

Like-named read-outs stand apart in the source and are kept apart here. A value given as a limit tells only on which side of the number the result lay.

T1 sequence (P32361 19-1115): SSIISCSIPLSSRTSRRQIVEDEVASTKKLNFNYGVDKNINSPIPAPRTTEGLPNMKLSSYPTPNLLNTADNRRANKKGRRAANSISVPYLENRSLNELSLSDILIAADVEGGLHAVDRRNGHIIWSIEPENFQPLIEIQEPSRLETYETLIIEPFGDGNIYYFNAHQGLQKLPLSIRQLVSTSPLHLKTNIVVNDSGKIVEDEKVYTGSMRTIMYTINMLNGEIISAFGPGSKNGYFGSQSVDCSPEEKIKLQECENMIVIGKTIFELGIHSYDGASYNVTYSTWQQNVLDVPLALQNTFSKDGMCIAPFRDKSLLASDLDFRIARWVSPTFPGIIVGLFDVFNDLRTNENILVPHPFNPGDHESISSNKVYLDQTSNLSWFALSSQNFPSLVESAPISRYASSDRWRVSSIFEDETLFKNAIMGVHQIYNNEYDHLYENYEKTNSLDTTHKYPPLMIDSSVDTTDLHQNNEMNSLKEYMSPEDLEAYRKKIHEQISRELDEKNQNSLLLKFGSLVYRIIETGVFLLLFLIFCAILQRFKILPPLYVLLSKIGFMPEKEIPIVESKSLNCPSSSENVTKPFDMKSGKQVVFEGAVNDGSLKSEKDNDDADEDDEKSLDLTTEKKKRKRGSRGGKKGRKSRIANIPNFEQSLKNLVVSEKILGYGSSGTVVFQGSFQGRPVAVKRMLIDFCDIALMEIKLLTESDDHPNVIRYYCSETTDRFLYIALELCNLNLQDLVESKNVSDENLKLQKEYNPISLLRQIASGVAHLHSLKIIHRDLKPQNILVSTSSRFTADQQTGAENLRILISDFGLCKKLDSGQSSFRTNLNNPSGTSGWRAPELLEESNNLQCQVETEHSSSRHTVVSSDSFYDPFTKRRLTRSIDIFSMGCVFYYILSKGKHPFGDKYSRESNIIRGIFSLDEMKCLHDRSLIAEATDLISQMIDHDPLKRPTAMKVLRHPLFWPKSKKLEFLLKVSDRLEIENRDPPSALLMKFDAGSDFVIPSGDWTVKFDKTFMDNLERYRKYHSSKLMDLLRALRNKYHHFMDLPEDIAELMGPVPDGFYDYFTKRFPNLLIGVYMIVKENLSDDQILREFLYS
Description for Alternaria brassicicola: (§1) For inoculum preparation, conidia of A. brassicicola or B. cinerea were collected from solid culture by adding water followed by gentle scraping of the agar plate. […] Growth was monitored by nephelometric reader (NEPHELOstar Galaxy®, BMG Labtech, Offenburg, Germany) at 25° C., with orbital shaking 5 min before measurement for 33 h. Turbidity was registered every 10 mins with a gain value of 75. Each well was measured during 0.1 s with a laser beam focus of 2.5 mm. A triplicate was realized for each condition. Area under the growth curve was determined by an Excel matrix developed in the lab. Area under the growth curve was normalized by area of positive control (filamentous fungi+DMSO less compound) and PDB medium to obtain a growth percentage.
Description for Botrytis cinerea: as §1

Take `CC(C)=CCc1c(O)cc2oc3c(O)cccc3c(=O)c2c1O` [1,3,5-trihydroxy-2-prenylxanthone, 1,3,5-trihydroxy-2-(3-methylbut-2-enyl)xanthen-9-one]: the “IRE1 inhibition (in words)” value at IRE1 is reported as “inhibit IRE1 in a micromolar scale”. For the same compound, on IRE1 (setting [1]), the “μ (% activation) ± σ” value amounted to 57.4 ± 4.9%. The “Cmax (concentration inducing at most 20% inhibition of fungal growth)” value in the assay with Alternaria brassicicola and in the assay with Botrytis cinerea (B. cinerea) was 100 µM in each case. For the same compound, the “CTP (retained non-fungicidal concentration applied in planta)” value came out at 50 µM in the assay on Alternaria brassicicola and 25 µM in the assay with Botrytis cinerea (B. cinerea). Also, the IC50 in the assay with Alternaria brassicicola and with Botrytis cinerea was > 100 µM in each case.

As for `CC(C)=CCc1c(O)cc(O)c2c(=O)c3cccc(O)c3oc12` [1,3,5-trihydroxy-4-prenylxanthone, 1,3,5-trihydroxy-4-(3-methylbut-2-enyl)xanthen-9-one], on IRE1, the “IRE1 inhibition (in words)” value is on record as “inhibit IRE1 in a micromolar scale” and the IC50 came to 12.8 µM. Further, the “μ (% activation) ± σ” value on IRE1 (setting [1]) was determined as 70.9 ± 3.2%. Further, in the assay on Alternaria brassicicola, the “Cmax (concentration inducing at most 20% inhibition of fungal growth)” value stood at 10 µM, the “CTP (retained non-fungicidal concentration applied in planta)” value came to 10 µM and the IC50 was found to be 41.3 ± 3.7 µM. Moreover, in the assay on Botrytis cinerea (B. cinerea), the “Cmax (concentration inducing at most 20% inhibition of fungal growth)” value amounted to 100 µM and the “CTP (retained non-fungicidal concentration applied in planta)” value was 25 µM. Besides, the IC50 in the assay on Botrytis cinerea is > 100 µM.

Consider `O=Cc1cc(I)cc(I)c1O` [DISA1, 3,5-diiodosalicylaldehyde, reference compound], for which the “Cmax (concentration inducing at most 20% inhibition of fungal growth)” value in the assay on Alternaria brassicicola is 2 µM; in the assay on Botrytis cinerea (B. cinerea), 2.5 µM. The “CTP (retained non-fungicidal concentration applied in planta)” value amounted to 2 µM in the assay on Alternaria brassicicola and 2.5 µM with Botrytis cinerea (B. cinerea). For the same compound, the IC50 came out at 5.3 ± 0.1 µM with Alternaria brassicicola and 6.3 ± 0.7 µM in the assay on Botrytis cinerea.

For `CC(C)=CCc1c(O)cc2oc3cc(O)c(O)c(CC=C(C)C)c3c(=O)c2c1O` [γ-mangostin, 1,3,6,7-tetrahydroxy-2,8-bis(3-methylbut-2-enyl)xanthen-9-one], at IRE1, the “IRE1 inhibition (in words)” value is reported as “inhibit IRE1 in a micromolar scale”, the “μ (% activation) ± σ” value is 8.7 ± 5.5% and the IC50 came out at 7.3 µM. Also, in the assay with Alternaria brassicicola, the “Cmax (concentration inducing at most 20% inhibition of fungal growth)” value was found to be 5 µM, the “CTP (retained non-fungicidal concentration applied in planta)” value was 5 µM and the IC50 was 12.2 ± 0.2 µM. For the same compound, in the assay on Botrytis cinerea (B. cinerea), the “Cmax (concentration inducing at most 20% inhibition of fungal growth)” value came out at 100 µM and the “CTP (retained non-fungicidal concentration applied in planta)” value is 25 µM. Also, in the assay with Botrytis cinerea, the IC50 was > 100 µM. In the assay on Botrytis cinerea (γ-mangostin 100 μM + ε-viniferin 100 μM, B. cinerea, 35 hours), the “effect on the antifungal effects of ε-viniferin (in words)” value was “potentiating effect”.

Consider (-)-Curine, for which, on IRE1 (setting [1]), the “μ (% activation) ± σ” value stood at 100.0 ± 3.8%.

In the case of (±)-Lindératine, the “μ (% activation) ± σ” value on IRE1 (setting [1]) was 103.0 ± 2.1%.

For the compound (−)-Argemonine, the “μ (% activation) ± σ” value on IRE1 is recorded as 102.6 ± 2.0%.

Consider “(−)-monomethylester-15 dehydropinifolic acid”, for which the “μ (% activation) ± σ” value on IRE1 (setting [1]) amounted to 103.8 ± 1.1%.

With Anibacanine, the “μ (% activation) ± σ” value at IRE1 (setting [1]) is given as 100.2 ± 3.6%.

Regarding Caledonixanthone K, on IRE1 (setting [1]), the “μ (% activation) ± σ” value was determined as 100.7 ± 2%.

Turning to Cycleanine, on IRE1, the “μ (% activation) ± σ” value was 102.2 ± 1.9%.

Regarding Mammea A/AA cycloF, the “μ (% activation) ± σ” value at IRE1 (setting [1]) amounted to 93.8 ± 1.1%.

As for Pseudoanibacanine, the “μ (% activation) ± σ” value at IRE1 (setting [1]) worked out at 100.0 ± 3.7%.

Steponine: the “μ (% activation) ± σ” value on IRE1 (setting [1]) stood at 103.4 ± 1.3%.

Turning to Tetraprenyltoluquinone, the “μ (% activation) ± σ” value on IRE1 (setting [1]) came to 100.8 ± 1.5%.

In the case of demethylrubraxanthone, the IC50 at IRE1 turned out to be 6.5 ± 0.4 µM.
